Data: patent publication US20230416801A1, “ANTIMICROBIC SUSCEPTIBILITY TESTING USING RECURRENT NEURAL NETWORKS” (Beckman Coulter, Inc., priority 2020, published 2023)

Tests used:
Pseudomonas aeruginosa [1] = experiment: Growth/no growth determinations made at 4, 5 and 6 hours by trained recurrent neural network (24 GRU) model from test-well organism counts; assay type: cell-based; details: for 4 Hour Call: model output 0-1 at 4 hours; for 5 Hour Call: model output 0-1 at 5 hours; for 6 Hour Call: model output 0-1 at 6 hours
Excerpt: FIG. 8 provides an illustration of how data that can be used in an optimized AST method 101 can be captured from a test well. Test well 20 is embodied by a “384” style test well, having a clear viewing bottom. The volume of inoculum in test well 20 may be set to 20 microliters to reduce the amount of materials such as bulk diluents required by AST method 101 and/or minimize light artifacts and provide sampling of a consistent number of microbes from the 1:250 dilution of the 0.5 MacFarland inoculum. Decreasing the volume of inoculum in test well 20 generally increases the light artifacts. In some instances, capturing a single vertical plane 103 at 20× objective whereby AST camera 35 is set at 0.33 microns/pixel may be sufficient for sampling the inoculum and ensuring that each individual microbe is recognizable. However, these parameters are configurable and may change as desired by the user or the underlying needs of the system. Capturing three focal sites spaced about 5 microns apart within single vertical plane 103 may also provide a sufficient number of microbes in the sample to count for use in optimized AST method 101. These three focal sites are labeled site 105, site 107, and site 109 in FIG. 8. In an exemplary version of optimized AST method 101, each focal site is approximately 700×700 microns within single vertical plane 103, rather than capturing three sites in three different vertical planes. AST camera 35, optics system 9, and computer 49 are configured to capture an image of each focal site in consecutive time periods, manipulate each of these images, and thereafter use the data derived from these manipulated images to make a MIC determination.
Once data extraction step 117 derives the desired information from segmented image 143, image analysis cycle 102 terminates. Optimized AST method 101 iteratively performs image analysis cycle 102 at set time intervals to determine how the microbes in each test well 20 are changing and reacting to the particular antimicrobic dilution pairing. Further, optimized AST method 101 iteratively performs image analysis cycle 102 on each test well 20 associated with the microbes to determine how the microbes are reacting to each concentration of the antimicrobic dilution. For example, presume the microbes being tested are E. coli bacteria and three test wells 20 are being tested, with each test well 20 having a 20-microliter solution therein. The first test well 20 may contain an antimicrobic dilution of 1 microgram per milliliter (μg/ml), the second test well 20 may contain an antimicrobic dilution of 2 μg/ml, and the third test well 20 may contain an antimicrobic dilution of 4 μg/ml. Optimized AST method 101 performs image analysis cycle 102 on each of the three test wells at each set time interval to determine (a) how each antimicrobic dilution is affecting the microbes; and (b) how each antimicrobic dilution is performing relative to the other antimicrobic dilutions. If the data indicates the 1 μg/ml antimicrobic dilution is as effective as the 2 and 4 μg/ml antimicrobic dilutions at neutralizing the microbes, the 1 μg/ml antimicrobic dilution is the MIC.
In step 163, the MIC is determined. The determination is based on the data collected during each iteration of image analysis cycle 102 for all of the antimicrobic dilutions for a microbial sample as well as for a control well where no antimicrobial agent was present. As described in the following section, this determination may involve processing the collected data with a machine learning model that had previously been trained to make determinations of whether an antimicrobial dilution in a test well would inhibit growth and then determining the MIC based on the test well with the lowest concentration where the machine learning model made a determination that growth would be inhibited. […]

Pseudomonas aeruginosa [2] = experiment: Target growth or no growth label determined after 16 hours; assay type: cell-based; design: key: a value of 1 could be interpreted as a determination that growth would not be inhibited; a value of 0 could be interpreted as a determination that growth would be inhibited; details: growth label after 16 hours
Excerpt: As an illustration of how these types of training approaches could be applied in practice, consider tables 5-12, below. In those tables, tables 5-9 provides GRU kernel weights, GRU recurrent weights, GRU bias weights, dense kernel weights, and a dense bias weight for a model implemented using the Keras API (an open source project governed by the Keras Special Interest Group and available at https://keras.io) and Tensorflow backend (an open source machine learning platform developed by Google, Inc. and available at https://www.tensorflow.org/) comprising a network cluster with 24 GRUs trained to make MIC determinations at 4, 5 and 6 hours based on training data for 56 microorganism strains when combined with various antimicrobials and the various combinations were labeled with growth or no growth information determined after 16 hours. In particular, table 5 provides a 1×72 array, in which the first 24 values would be mapped to Wz, the second 24 values would be mapped to Wr and the third 24 values would be mapped to Wh in an embodiment following FIG. 19. Table 6 provides a 72×24 array, in which the first 24×24 array (i.e., the first 24 bracketed sets of values) would be mapped to Uz, the next 24×24 array would be mapped to Ur and the third 24×24 array would be mapped to Uh in an embodiment following FIG. 19. Table 7 provides a 1×72 array, in which the first 24 values would be mapped to bz, the second 24 values would be mapped to br and the third 24 values would be mapped to bh in an embodiment following FIG. 19. Table 8 provides a 1×1344 array of values which would be multiplied by the output of the combination function 1806 in the dense layer 1807. Table 9 provides a bias value which would be added to the output of the dense layer 1807 before it was provided to the activation function 1808. Table 10 provides growth/no growth determinations made at 4, 5 and 6 hours by a system trained as described above for Pseudomonas aeruginosa and the drug Ceftazidime. Tables 11-12 provide microorganisms and antimicrobials included in the training data described above and for which the model was confirmed to be effective.

## CC(C)(O/N=C(\C(=O)N[C@@H]1C(=O)N2C(C(=O)[O-])=C(C[n+]3ccccc3)CS[C@H]12)c1csc(N)n1)C(=O)O [Ceftazidime]
Pseudomonas aeruginosa [1]; Dilution 0.03
  4 Hour Call: 1
  5 Hour Call: 1
  6 Hour Call: 1
Pseudomonas aeruginosa [1]; Dilution 0.06
  4 Hour Call: 1
  5 Hour Call: 1
  6 Hour Call: 1
Pseudomonas aeruginosa [1]; Dilution 0.12
  4 Hour Call: 1
  5 Hour Call: 1
  6 Hour Call: 1
Pseudomonas aeruginosa [1]; Dilution 0.25
  4 Hour Call: 1
  5 Hour Call: 1
  6 Hour Call: 1
Pseudomonas aeruginosa [1]; Dilution 0.5
  4 Hour Call: 1
  5 Hour Call: 1
  6 Hour Call: 1
Pseudomonas aeruginosa [1]; Dilution 1
  4 Hour Call: 0.2105
  5 Hour Call: 0.9399
  6 Hour Call: 0.9518
Pseudomonas aeruginosa [1]; Dilution 2
  4 Hour Call: 0.003836
  5 Hour Call: 4.89E−05
  6 Hour Call: 3.77E−06
Pseudomonas aeruginosa [1]; Dilution 4
  4 Hour Call: 0.002258
  5 Hour Call: 7.26E−06
  6 Hour Call: 2.27E−07
Pseudomonas aeruginosa [1]; Dilution 8
  4 Hour Call: 0.0001531
  5 Hour Call: 0.0005926
  6 Hour Call: 0.000432
Pseudomonas aeruginosa [1]; Dilution 16
  4 Hour Call: 0.003935
  5 Hour Call: 0.001447
  6 Hour Call: 2.32E−06
Pseudomonas aeruginosa [1]; Dilution 32
  4 Hour Call: 0.009609
  5 Hour Call: 5.69E−05
  6 Hour Call: 1.23E−06
Pseudomonas aeruginosa [1]; Dilution 64
  4 Hour Call: 0.001147
  5 Hour Call: 1.21E−05
  6 Hour Call: 1.64E−06
Pseudomonas aeruginosa [2]; Dilution 0.03
  Target: 1
Pseudomonas aeruginosa [2]; Dilution 0.06
  Target: 1
Pseudomonas aeruginosa [2]; Dilution 0.12
  Target: 1
Pseudomonas aeruginosa [2]; Dilution 0.25
  Target: 1
Pseudomonas aeruginosa [2]; Dilution 0.5
  Target: 1
Pseudomonas aeruginosa [2]; Dilution 1
  Target: 1
Pseudomonas aeruginosa [2]; Dilution 2
  Target: 0
Pseudomonas aeruginosa [2]; Dilution 4
  Target: 0
Pseudomonas aeruginosa [2]; Dilution 8
  Target: 0
Pseudomonas aeruginosa [2]; Dilution 16
  Target: 0
Pseudomonas aeruginosa [2]; Dilution 32
  Target: 0
Pseudomonas aeruginosa [2]; Dilution 64
  Target: 0
